Results taken from PubChem BioAssay (NCI).
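Grown in 96-well plates, cells were treated for 48 hours with each compound at five concentrations. Insufficient inhibition: endpoint recorded as highest concentration tested. At the GI50, growth is halved. Definition used: TGI = concentration required for complete inhibition of growth.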

Legend:
Test in all cases: growth of human tumour cells (NCI), 48 h
HCC-2998 colon = tested on: HCC-2998 colon
NCI-H460 lung = tested on: NCI-H460 lung
BT-549 breast = tested on: BT-549 breast
SF-539 CNS = tested on: SF-539 CNS
MDA-MB-231 breast = tested on: MDA-MB-231 breast
NCI-H23 lung = tested on: NCI-H23 lung
A498 renal = tested on: A498 renal
RPMI-8226 leukemia = tested on: RPMI-8226 leukemia
EKVX NSCLC = tested on: EKVX NSCLC
UACC-62 melanoma = tested on: UACC-62 melanoma

Row | SMILES | TGI (HCC-2998 colon) | TGI (NCI-H460 lung) | TGI (BT-549 breast) | TGI (SF-539 CNS) | TGI (MDA-MB-231 breast) | TGI (NCI-H23 lung) | TGI (A498 renal) | TGI (RPMI-8226 leukemia) | TGI (EKVX NSCLC) | TGI (UACC-62 melanoma) | GI50 (HCC-2998 colon) | GI50 (NCI-H460 lung) | GI50 (BT-549 breast) | GI50 (MDA-MB-231 breast) | GI50 (NCI-H23 lung) | GI50 (EKVX NSCLC) | GI50 (UACC-62 melanoma) | GI50 (A498 renal) | GI50 (RPMI-8226 leukemia) | GI50 (SF-539 CNS)
1 | O=c1[nH]cc(/C=N\Nc2ccccc2)c(=O)[nH]1 | > 100 µM | > 100 µM | > 100 µM | > 100 µM | > 100 µM | > 100 µM | > 100 µM | > 100 µM | > 100 µM | > 100 µM | – | – | – | – | – | – | – | – | – | –
2 | O=Cc1ccc(-c2ccc(-c3nc4ccccc4[nH]3)cc2)s1 | 81.3 µM | 29.7 µM | 52.4 µM | – | > 100 µM | 35 µM | – | – | 87 µM | 52.9 µM | 29.3 µM | 13.1 µM | 15.6 µM | 45.8 µM | 17.2 µM | 24 µM | 22.1 µM | – | – | –
3 | O=C(O)C1=C(C(=O)Nc2ccccc2)C2C=CC1C2 (configuration not stated) | > 100 µM | > 100 µM | – | > 100 µM | – | > 100 µM | > 100 µM | > 100 µM | > 100 µM | > 100 µM | – | – | – | – | – | – | – | – | – | –
4 | CN(C)c1ncnc2c1Cc1ccccc1C(=O)N2C | > 100 µM | > 100 µM | – | > 100 µM | – | > 100 µM | – | > 100 µM | > 100 µM | > 100 µM | – | – | – | – | – | – | – | – | – | –
5 | O=C(Cc1nc2ccccc2s1)Nc1ccc(Cl)cc1 | > 100 µM | > 100 µM | – | > 100 µM | – | > 100 µM | > 100 µM | – | > 100 µM | > 100 µM | – | – | – | – | – | – | – | – | – | –
6 | COc1cc2c3c(c4ccc(OC)c(OC)c4c2cc1OC)CN1CCC[C@@H]1C3 | 1.78 µM | 2.09 µM | 2.36 µM | 0.425 µM | 0.156 µM | 0.637 µM | 0.0681 µM | – | 0.378 µM | 0.35 µM | – | – | – | – | – | – | – | – | – | –
7 | COc1cccc(NC(=O)C(C)(C)C)c1C=O | > 100 µM | > 100 µM | – | > 100 µM | – | > 100 µM | > 100 µM | > 100 µM | > 100 µM | > 100 µM | – | – | – | – | – | – | – | – | – | –
8 | CCCOc1ccc(-c2nc(-c3ccc(N=Cc4ccc(N(CCOS(C)(=O)=O)CCOS(C)(=O)=O)cc4C)cc3)cs2)cc1 | 26.8 µM | 24 µM | – | 48.8 µM | 86 µM | 30.8 µM | 24.2 µM | > 100 µM | 56.9 µM | > 69.6 µM | – | – | – | – | – | – | – | – | – | –
9 | COc1cc(Br)c(CC2(C#N)c3ccccc3C3C(N2C(=O)c2ccccc2)C3(Cl)Cl)cc1OC (configuration not stated) | > 65.5 µM | > 65.5 µM | – | > 65.5 µM | – | > 65.5 µM | – | > 65.5 µM | > 65.5 µM | > 65.5 µM | – | – | – | – | – | – | – | – | – | –
10 | CCSC(SCC)c1cc2c(cc1Br)OCO2 | 67.5 µM | 49.4 µM | – | 35.5 µM | – | 88.9 µM | 86.7 µM | 60.3 µM | > 100 µM | > 100 µM | – | – | – | – | – | – | – | – | – | –
11 | CC(C)CC1C(=O)N2CCC[C@H]2C2(O)O[C@](NC(=O)C3C=C4c5cccc6[nH]c(Br)c(c56)C[C@H]4N(C)C3)(C(C)C)C(=O)N12 (some centres not stated) | – | > 100 µM | > 100 µM | > 100 µM | > 100 µM | > 100 µM | > 100 µM | > 100 µM | > 100 µM | > 100 µM | – | 6.6 µM | 11.7 µM | – | 8.22 µM | 3.7 µM | 29.7 µM | 3.21 µM | – | –
12 | c1ccc(N=c2snc3scc(-c4ccccc4)n23)cc1 | > 100 µM | – | – | > 100 µM | – | > 100 µM | > 100 µM | 86.7 µM | > 100 µM | 92.1 µM | – | – | – | – | – | – | – | – | – | –
13 | CC1=C(C(=O)Nc2ccccc2)C(c2ccc([N+](=O)[O-])cc2)C(C(=O)Nc2ccccc2)=C(C)N1 | 45.8 µM | 70.3 µM | – | 44.9 µM | – | 64.7 µM | 93 µM | 73.3 µM | 46.2 µM | 27.9 µM | – | – | – | – | – | – | – | – | – | –
14 | O=C(NCCO)c1cc2c(cn1)[nH]c1ccccc12 | 33.2 µM | > 100 µM | – | > 100 µM | – | > 100 µM | > 100 µM | > 100 µM | > 100 µM | > 100 µM | – | – | – | – | – | – | – | – | – | –
15 | CCN(CC)CCCC(C)Nc1cc(-c2ccc(C(F)(F)F)cc2)c(C#N)c2nc3ccccc3n12 (configuration not stated) | 3.67 µM | 3.61 µM | 3.16 µM | – | 3.42 µM | 4.22 µM | 2.9 µM | 5.22 µM | 5.82 µM | 3.38 µM | 1.91 µM | 1.82 µM | 1.6 µM | 1.58 µM | 1.86 µM | 2.29 µM | 1.72 µM | 1.47 µM | 1.96 µM | –
16 | CCC(=O)C1(c2ccccc2)CCN(C)CC1 | > 100 µM | > 100 µM | – | – | – | > 100 µM | > 100 µM | > 100 µM | > 100 µM | – | – | – | – | – | – | – | – | – | – | –
17 | COc1c2c3ccccc3nc-2n(C)c2ccccc12 | – | 32.1 µM | 43.5 µM | 25.9 µM | 40.4 µM | 33.6 µM | 24.8 µM | 24.4 µM | 57.2 µM | 33 µM | – | 6.26 µM | 18.8 µM | 7.03 µM | 11.7 µM | 13.7 µM | 11.1 µM | 10.1 µM | 6.04 µM | 8.83 µM
18 | Cc1ccc(-n2c3nc(=O)n(C)c(=O)c-3nc3ccccc32)cc1 | 20.6 µM | 17.3 µM | – | > 100 µM | – | 11.8 µM | > 100 µM | 54.6 µM | 38.4 µM | 5.52 µM | – | – | – | – | – | – | – | – | – | –
19 | O=C1OC(c2ccccc2)=N/C1=C\c1ccc2ccccc2c1 | – | > 100 µM | – | > 100 µM | – | > 100 µM | > 100 µM | > 100 µM | > 100 µM | > 100 µM | – | – | – | – | – | – | – | – | – | –
20 | Nc1nc(Cl)cc(NCCCCCNc2cc(Cl)nc(N)n2)n1 | > 100 µM | > 100 µM | – | > 100 µM | – | > 100 µM | – | > 100 µM | > 100 µM | 83.9 µM | – | – | – | – | – | – | – | – | – | –
21 | CN(C)CCCNC(=O)c1ccc2oc3cc4ccccc4c(=O)n3c2c1 | – | > 50 µM | > 50 µM | 30.5 µM | > 50 µM | > 50 µM | – | > 50 µM | > 50 µM | > 50 µM | – | 16.6 µM | 24.2 µM | 16.5 µM | 17.9 µM | > 50 µM | > 50 µM | – | > 50 µM | 13.6 µM
22 | CCOC(=O)Cc1nc2ccccc2s1 | > 100 µM | 39.6 µM | – | 36.6 µM | – | 29.3 µM | 36 µM | – | > 100 µM | 33.3 µM | – | – | – | – | – | – | – | – | – | –
